Laboratory results taken from patent US20250176550A1, “HERBICIDE COMPOSITION OF URACIL COMPOUND CONTAINING CARBOXYLATE FRAGMENT AND THE USE THEREOF” (Jiangsu Flag Chemical Industry Co., Ltd., priority 2022, published 2025).
Where two headings read alike, the source gives them in different places.

Legend:
Assay in all cases: Indoor virulence and combined effect, greenhouse pot test, post-emergence stem and leaf spray, fresh weight inhibition
Type in all cases: in vivo
[1] = test system: veronica persica
Experimental: (§1) The active ingredients A and B are respectively screened and an indoor combined effect of the composition on weeds was evaluated by an indoor test and a field test, to determine a combined effect of the composition on weeds.
(§2) Quantitative seeds of Poaceae weeds (echinochloa crusgalli, Digitaria sanguinalis, setaria viridis, Eleusine indica, avena fatua, alopecurus japonicus, alopecurus aequalis, Lolium multiflorum) and broadleaf weeds (eclipta prostrata, rorippa dubia, Abutilon theophrasti, conyza canadensis, veronica persica, myosoton aquaticum, polygonum lapathifolium, galium aparine var. tenerum, alisma plantago-aquatica, geranium carolinianum) were sown in paper cup containing nutrient soil with a diameter of 7 cm, covered with soil for 1 cm after sowing. After pressing and watering, they were cultured in a greenhouse according to a conventional method. Poaceae weeds grew to 3˜4 leaf stage, broad-leaved weeds grew to 4˜6 leaf stage, spraying treatment to both stem and leaf was performed; and pre-seedling soil spray treatment was performed 24 hours after sowing. Following an experimental design dosage, a WP-2000 walking spray tower (spindle speed 96 mm/r, spray height 200 mm, effective spray amplitude of nozzle 350 mm, nozzle flow rate 390 mL/min, nozzle walking speed 210 mm/s) was used for the spray treatment. The experiment was repeated three times. After being treated, a sample material is placed in an operation hall, and after the drug solution is naturally dried out, the sample material is placed in a greenhouse and managed according to the conventional method. A reaction of weeds to the drug agent is observed and recorded, and a regularly visual check of a control effect of the drug agent on weeds was performed after the treatment.
(§3) All of original drugs were using acetone as a solvent, being diluted with 0.1 wt % emulsifier of Tween-80 aqueous solution, and being diluted right before using.
(§4) When determining a ratio or content of the active ingredient A and the active ingredient B, it should be measured from characteristics of action of both agents and virulence thereof, as well as the main purpose of use of a formula shall also be considered in. In the present study, on a basis of previous pre-test, the dosages of the active ingredient A and the active ingredient B were set, when being used alone and mixed, as shown in the following table. Water containing no agent, but containing the same solvent and emulsifier was used as a blank control.
(§5) Repeat 4 times for each treatment, 3 pots per treatment each time and 30 weed seeds were sown for each pot.
(§6) Adopting an absolute number survey method, using a blade to cut the whole seedling of surviving weed along soil surface, and weighting the fresh weight of the weed with an analytical balance. For weeds that had died, counting the fresh weight as zero.
(§7) Survey period and frequency: 21 days after the treatment, total 1 investigation.
(§8) The theoretical fresh weight inhibition rate (E0-Expected Efficacy=[…]) of each treatment combination was calculated by Gowing method, and then compared with the measured inhibition rate (E-Observed Efficacy) to evaluate the combined effect type of both on weeds. When E-E0 value was greater than 10%, it was counted as a synergistic effect, less than −10%, it was counted as an antagonistic effect, and between −10%˜10%, it was counted as an additive effect. According to a plurality of factors including an actual control efficacy, a herbicide characteristic, a formula balance and other factors to determine the best ratio. In the formula, X is the fresh weight inhibition rate of the ingredient A at a dosage of P; Y is the fresh weight inhibition rate of the active ingredient B at a dosage of Q.
(§9) The statistical results are shown in Table 1 to Table 44 below, except for those marked clearly as “pre-emergence treatment”, all others are “post-emergence treatment”. […]

[2] = test system: lolium multiflorum
Experimental: as §1, §2, §3, §4, §5, §6, §7, §8, §9

[3] = test system: eclipta prostrata
Experimental: as §1, §2, §3, §4, §5, §6, §7, §8, §9

[4] = test system: echinochloa crusgalli; conditions: for inhibition at 5 g/ha: 5 g a.i./ha; for inhibition at 10 g/ha: 10 g a.i./ha; for Fresh weight suppression rate %, B single dose: Table 22
Experimental: as §1
as §2, with “Following an experimental design dosage, a WP-2000 walking spray tower (spindle speed 96 mm/r, spray height 200 mm, effective spray amplitude of nozzle 350 mm, nozzle flow rate 390 mL/min, nozzle walking speed 210 mm/s) was used for the spray treatment.” left out, “method.” for “method. A reaction of weeds to the drug agent is observed and recorded, and a regularly visual check of a control effect of the drug agent on weeds was performed after the treatment.”
as §3, §4, §5, §6, §7
When E-E0 value was greater than 10%, it was counted as a synergistic effect, less than −10%, it was counted as an antagonistic effect, and between −10%˜10%, it was counted as an additive effect. […] In the formula, X is the fresh weight inhibition rate of the ingredient A at a dosage of P; Y is the fresh weight inhibition rate of the active ingredient B at a dosage of Q.

[5] = Echinochloa crus-galli, 504 h, Table 2, post-emergence, 21 days after treatment, read-out: Fresh weight inhibition rate %, B single agent
[6] = Echinochloa crus-galli, 504 h, Table 4, post-emergence, 21 days after treatment, read-out: Fresh weight inhibition rate %, B single agent

## Nc1c(Cl)c(Cl)nc(C(=O)O)c1Cl [picloram-potassium, picloram]
[1]; Table 26, B 450 g a.i./ha
  Fresh weight inhibition rate %, B single agent: 42.89%
[1]; Table 26, B 525 g a.i./ha
  Fresh weight inhibition rate %, B single agent: 47.46%
[1]; Table 26, B 600 g a.i./ha
  Fresh weight inhibition rate %, B single agent: 50.25%
[1]; Table 26, B 600 g a.i./ha (row 2 + 600)
  Fresh weight inhibition rate %, B single agent: 50.25%

## C=CCOC(=O)C(C)(C)OC(=O)c1cc(-n2c(=O)cc(C(F)(F)F)n(C)c2=O)ccc1Cl [butafenacil]
[2]; Table 34, B 7.5 g a.i./ha
  Fresh weight inhibition rate %, B single agent: 29.47%
[2]; Table 34, B 12.5 g a.i./ha
  Fresh weight inhibition rate %, B single agent: 36.55%
[2]; Table 34, B 20 g a.i./ha
  Fresh weight inhibition rate %, B single agent: 43.60%
[2]; Table 34, B 30 g a.i./ha
  Fresh weight inhibition rate %, B single agent: 53.40%

## CCCCC(CC)COC(=O)COc1ccc(Cl)cc1Cl [2,4-D-etexyl]
[1]; Table 23, B 195 g a.i./ha
  Fresh weight inhibition rate %, B single agent: 30.42%
[1]; Table 23, B 275 g a.i./ha
  Fresh weight inhibition rate %, B single agent: 40.62%
[1]; Table 23, B 350 g a.i./ha
  Fresh weight inhibition rate %, B single agent: 50.28%

## c1cc[n+]2c(c1)-c1cccc[n+]1CC2 [diquat]
[2]; Table 27, B 300 g a.i./ha
  Fresh weight inhibition rate %, B single agent: 31.27%
[2]; Table 27, B 400 g a.i./ha
  Fresh weight inhibition rate %, B single agent: 36.44%
[2]; Table 27, B 495 g a.i./ha
  Fresh weight inhibition rate %, B single agent: 41.37%

## CCCCCCC(C)OC(=O)COc1nc(F)c(Cl)c(N)c1Cl (centres unmarked) [fluroxypyr-meptyl]
[3]; Table 42, B 32 g a.i./ha
  Fresh weight inhibition rate %, B single agent: 30.91%
[3]; Table 42, B 40 g a.i./ha
  Fresh weight inhibition rate %, B single agent: 34.55%
[3]; Table 42, B 60 g a.i./ha
  Fresh weight inhibition rate %, B single agent: 39.55%
[3]; Table 42, B 80 g a.i./ha
  Fresh weight inhibition rate %, B single agent: 73.18%

## COc1cnc(OC)n2nc(NS(=O)(=O)c3c(OCC(F)F)cccc3C(F)(F)F)nc12 [penoxsulam]
[4]; [5]
  inhibition at 5 g/ha: 7.31%
  inhibition at 10 g/ha: 18.3%

## COCc1cnc(C2=NC(C)(C(C)C)C(=O)N2)c(C(=O)[O-])c1.[Na+] (centres unmarked) [imazamox-sodium]
[4]; Table 3, 15 g a.i./ha, post-emergence, 21 days after treatment
  Fresh weight inhibition rate %, B single agent: 2.52%
[4]; Table 3, 20 g a.i./ha, post-emergence, 21 days after treatment
  Fresh weight inhibition rate %, B single agent: 13.41%

## COC(=O)CCNC(=O)C(C)Sc1cc(-n2c(=O)cc(C(F)(F)F)n(C)c2=O)c(F)cc1Cl (centres unmarked) [tiafenacil]
[2]; Table 38, B 10 g a.i./ha
  Fresh weight inhibition rate %, B single agent: 8.27%
[2]; Table 38, B 15 g a.i./ha
  Fresh weight inhibition rate %, B single agent: 15.26%
[2]; Table 38, B 20 g a.i./ha
  Fresh weight inhibition rate %, B single agent: 22.42%

## CC(C)N1C(=O)c2ccccc2NS1(=O)=O [bentazone-sodium]
[1]; Veronica persica, 504 h, Table 9, 300 g a.i./ha, post-emergence, 21 days after treatment, read-out: Fresh weight inhibition rate %, B single agent
  inhibition at 300 g/ha: 30.5%
[1]; Veronica persica, 504 h, Table 9, 450 g a.i./ha, post-emergence, 21 days after treatment, read-out: Fresh weight inhibition rate %, B single agent
  inhibition at 450 g/ha: 41.9%
[1]; Veronica persica, 504 h, Table 9, 525 g a.i./ha, post-emergence, 21 days after treatment, read-out: Fresh weight inhibition rate %, B single agent
  inhibition at 525 g/ha: 53.3%

## N#Cc1cnn(-c2nn3c(c2Cl)CCCC3)c1NCC1CC1 [cyclopyranil]
[4]; Table 37, B 12.5 g a.i./ha
  Fresh weight inhibition rate %, B single agent: 24.73%
[4]; Table 37, B 20 g a.i./ha
  Fresh weight inhibition rate %, B single agent: 25.46%
[4]; Table 37, B 30 g a.i./ha
  Fresh weight inhibition rate %, B single agent: 31.50%
[4]; Table 37, B 40 g a.i./ha
  Fresh weight inhibition rate %, B single agent: 39.05%

## CP(=O)(O)CCC(N)C(=O)O (centres unmarked) [glufosinate-ammonium]
[2]; Table 19, B 120 g a.i./ha
  Fresh weight inhibition rate %, B single agent: 2.63%
[2]; Table 19, B 210 g a.i./ha
  Fresh weight inhibition rate %, B single agent: 12.20%
[2]; Table 19, B 300 g a.i./ha
  Fresh weight inhibition rate %, B single agent: 27.99%
[2]; Table 19, B 400 g a.i./ha
  Fresh weight inhibition rate %, B single agent: 54.64%

## broclozone
[4]; Table 44, B 50 g a.i./ha
  Fresh weight inhibition rate %, B single agent: 5.86%
[4]; Table 44, B 80 g a.i./ha
  Fresh weight inhibition rate %, B single agent: 16.30%
[4]; Table 44, B 120 g a.i./ha
  Fresh weight inhibition rate %, B single agent: 33.00%
[4]; Table 44, B 150 g a.i./ha
  Fresh weight inhibition rate %, B single agent: 44.95%

## CC1(C)CON(Cc2ccccc2Cl)C1=O [clomazone]
[4]; Echinochloa crus-galli, 504 h, Table 17, 12.5 g a.i./ha, post-emergence, 21 days after treatment, read-out: Fresh weight inhibition rate %, B single agent
  inhibition at 12.5 g/ha: 8.42%
[4]; Echinochloa crus-galli, 504 h, Table 17, 20 g a.i./ha, post-emergence, 21 days after treatment, read-out: Fresh weight inhibition rate %, B single agent
  inhibition at 20 g/ha: 7.51%
[4]; Echinochloa crus-galli, 504 h, Table 17, 45 g a.i./ha, post-emergence, 21 days after treatment, read-out: Fresh weight inhibition rate %, B single agent
  inhibition at 45 g/ha: 10.9%

## CNC.COc1c(Cl)ccc(Cl)c1C(=O)O [dicamba-dimethylammonium]
[1]; Table 24, B 40 g a.i./ha
  Fresh weight inhibition rate %, B single agent: 11.68%
[1]; Table 24, B 60 g a.i./ha
  Fresh weight inhibition rate %, B single agent: 25.89%
[1]; Table 24, B 80 g a.i./ha
  Fresh weight inhibition rate %, B single agent: 37.82%
[1]; Table 24, B 100 g a.i./ha
  Fresh weight inhibition rate %, B single agent: 38.58%

## C#CCN1C(=O)COc2cc(F)c(N3C(=O)C4=C(CCCC4)C3=O)cc21 [flumioxazin]
[3]; Table 11, B 8 g a.i./ha
  Fresh weight inhibition rate %, B single agent: 24.97%
[3]; Table 11, B 16 g a.i./ha
  Fresh weight inhibition rate %, B single agent: 39.68%
[3]; Table 11, B 20 g a.i./ha
  Fresh weight inhibition rate %, B single agent: 45.24%
[3]; Table 11, B 30 g a.i./ha
  Fresh weight inhibition rate %, B single agent: 54.24%

## CP(=O)(O)CC[C@H](N)C(=O)O.N [glufosinate-P-ammonium]
[2]; Table 20, B 200 g a.i./ha
  Fresh weight inhibition rate %, B single agent: 8.61%
[2]; Table 20, B 300 g a.i./ha
  Fresh weight inhibition rate %, B single agent: 74.40%
[2]; Table 20, B 350 g a.i./ha
  Fresh weight inhibition rate %, B single agent: 78.23%
[2]; Table 20, B 400 g a.i./ha
  Fresh weight inhibition rate %, B single agent: 83.04%

## COc1cc(OC)nc(Oc2cccc(Oc3nc(OC)cc(OC)n3)c2C(=O)O)n1 [bispyribac-sodium]
[4]; [6]
  inhibition at 5 g/ha: 14.3%
  inhibition at 10 g/ha: 21.9%
[4]; Echinochloa crus-galli, 504 h, Table 4, 25 g a.i./ha, post-emergence, 21 days after treatment, read-out: Fresh weight inhibition rate %, B single agent
  inhibition at 25 g/ha: 30.1%

## COP(=S)(OC)SCC(=O)N(c1ccc(Cl)cc1)C(C)(C)C [anilofos]
[4]; B 60 g a.i./ha
  Fresh weight suppression rate %, B single dose: 37.41%
[4]; B 80 g a.i./ha
  Fresh weight suppression rate %, B single dose: 41.96%
[4]; B 105 g a.i./ha
  Fresh weight suppression rate %, B single dose: 46.85%
[4]; B 120 g a.i./ha
  Fresh weight suppression rate %, B single dose: 64.69%
